Data published in patent publication US20250127162A1, “METHODS AND COMPOSITIONS FOR CONTROLLING PESTS IN RICE” (Globachem NV, priority 2022, published 2025).

Key:
Type in all cases: in vivo
Oryzaphagus oryzae = experiment: Rice field trials, number of Oryzaphagus oryzae (Example 2, Trials 1-2, Brazil); conditions: 3 days after application; for Number of Oryzaphagus oryzae, Average: average of 4 repetitions; for Number of Oryzaphagus oryzae, Repetition A / Number of Oryzaphagus oryzae, Repetition B / Number of Oryzaphagus oryzae, Repetition C / Number of Oryzaphagus oryzae, Repetition D: one application
Method: (§1) All applications were made with an EC formulation containing 650 g/L of pelargonic acid (e.g., 685 g/L of 95% purity pelargonic acid), an anionic emulsifier and a branched fatty acid ester solvent.
Trials 1-2 assessing the use of pelargonic acid for controlling Oryzaphagus oryzae in rice were conducted in Brazil. One application was made 5 days after the first flood irrigation. Assessments of the number of Oryzaphagus oryzae were made three (3) days after application for each of the four (4) repetitions at each dose rate.

Diabrotica speciosa [1] = experiment: Potato field trials, control of Diabrotica speciosa (Example 3); conditions: 400 L water/ha, two applications 7 d apart, Actara 0.05 kg/ha
Source text: as §1, with “solvent. […]. […] Potatoes—Diabrotica speciosa (Cucurbit beetle)-DIABSC [table] [table]” for “solvent.”

Diabrotica speciosa [2] = experiment: Dry bean field trials, Diabrotica speciosa damage and yield (Example 4); conditions: 150 L water/ha, two applications 7 d apart; for % Damage, % UNCK: 28 DAB, Lambda-cyhalothrin 100 at 0.15 L/ha; for Yield: plot
Source text: as §1
Diabrotica speciosa is a major pest in rice.
Dry Beans—Diabrotica speciosa

[3] = Trial 1, listed as PA 487.5 g/ha
[4] = Trial 1, listed as PA 1300 g/ha
[5] = Trial 2, listed as PA 487.5 g/ha
[6] = Trial 2, listed as PA 1300 g/ha
[7] = Trial 1, dry bean, listed as PA 812.5 g/ha
[8] = Trial 1, dry bean, listed as PA 975 g/ha
[9] = Trial 1, dry bean, listed as PA 1137.5 g/ha
[10] = Trial 2, dry bean, listed as PA 812.5 g/ha
[11] = Trial 2, dry bean, listed as PA 975 g/ha
[12] = Trial 2, dry bean, listed as PA 1137.5 g/ha

CCCCCCCCC(=O)O [PA 650 g/ha, pelargonic acid]
E % (Oryzaphagus oryzae; Trial 1): 90% | Number of Oryzaphagus oryzae, Average (Oryzaphagus oryzae; Trial 1): 0.25 b | Number of Oryzaphagus oryzae, Average (Oryzaphagus oryzae; [3]): 0.5 b | Number of Oryzaphagus oryzae, Average (Oryzaphagus oryzae; Trial 1, listed as PA 975 g/ha): 0.25 b | Number of Oryzaphagus oryzae, Average (Oryzaphagus oryzae; [4]): 0 b | E % (Oryzaphagus oryzae; [3]): 80% | E % (Oryzaphagus oryzae; Trial 1, listed as PA 975 g/ha): 90% | E % (Oryzaphagus oryzae; [4]): 100% | Number of Oryzaphagus oryzae, Repetition A (Oryzaphagus oryzae; Trial 1): 1 | Number of Oryzaphagus oryzae, Repetition B (Oryzaphagus oryzae; Trial 1): 0 | Number of Oryzaphagus oryzae, Repetition C (Oryzaphagus oryzae; Trial 1): 0 | Number of Oryzaphagus oryzae, Repetition D (Oryzaphagus oryzae; Trial 1): 0 | Number of Oryzaphagus oryzae, Repetition A (Oryzaphagus oryzae; [3]): 0 | Number of Oryzaphagus oryzae, Repetition B (Oryzaphagus oryzae; [3]): 1 | Number of Oryzaphagus oryzae, Repetition C (Oryzaphagus oryzae; [3]): 1 | Number of Oryzaphagus oryzae, Repetition D (Oryzaphagus oryzae; [3]): 0 | Number of Oryzaphagus oryzae, Repetition A (Oryzaphagus oryzae; Trial 1, listed as PA 975 g/ha): 0 | Number of Oryzaphagus oryzae, Repetition B (Oryzaphagus oryzae; Trial 1, listed as PA 975 g/ha): 0 | Number of Oryzaphagus oryzae, Repetition C (Oryzaphagus oryzae; Trial 1, listed as PA 975 g/ha): 0 | Number of Oryzaphagus oryzae, Repetition D (Oryzaphagus oryzae; Trial 1, listed as PA 975 g/ha): 1 | Number of Oryzaphagus oryzae, Repetition A (Oryzaphagus oryzae; [4]): 0 | Number of Oryzaphagus oryzae, Repetition B (Oryzaphagus oryzae; [4]): 0 | Number of Oryzaphagus oryzae, Repetition C (Oryzaphagus oryzae; [4]): 0 | Number of Oryzaphagus oryzae, Repetition D (Oryzaphagus oryzae; [4]): 0 | E % (Oryzaphagus oryzae; Trial 2): 77.78% | Number of Oryzaphagus oryzae, Average (Oryzaphagus oryzae; Trial 2): 0.5 ab | Number of Oryzaphagus oryzae, Average (Oryzaphagus oryzae; [5]): 0.75 ab | Number of Oryzaphagus oryzae, Average (Oryzaphagus oryzae; Trial 2, listed as PA 975 g/ha): 0.25 b | Number of Oryzaphagus oryzae, Average (Oryzaphagus oryzae; [6]): 0 b | E % (Oryzaphagus oryzae; [5]): 66.67% | E % (Oryzaphagus oryzae; Trial 2, listed as PA 975 g/ha): 88.89% | E % (Oryzaphagus oryzae; [6]): 100% | Number of Oryzaphagus oryzae, Repetition A (Oryzaphagus oryzae; Trial 2): 1 | Number of Oryzaphagus oryzae, Repetition B (Oryzaphagus oryzae; Trial 2): 0 | Number of Oryzaphagus oryzae, Repetition C (Oryzaphagus oryzae; Trial 2): 0 | Number of Oryzaphagus oryzae, Repetition D (Oryzaphagus oryzae; Trial 2): 1 | Number of Oryzaphagus oryzae, Repetition A (Oryzaphagus oryzae; [5]): 0 | Number of Oryzaphagus oryzae, Repetition B (Oryzaphagus oryzae; [5]): 1 | Number of Oryzaphagus oryzae, Repetition C (Oryzaphagus oryzae; [5]): 2 | Number of Oryzaphagus oryzae, Repetition D (Oryzaphagus oryzae; [5]): 0 | Number of Oryzaphagus oryzae, Repetition A (Oryzaphagus oryzae; Trial 2, listed as PA 975 g/ha): 1 | Number of Oryzaphagus oryzae, Repetition B (Oryzaphagus oryzae; Trial 2, listed as PA 975 g/ha): 0 | Number of Oryzaphagus oryzae, Repetition C (Oryzaphagus oryzae; Trial 2, listed as PA 975 g/ha): 0 | Number of Oryzaphagus oryzae, Repetition D (Oryzaphagus oryzae; Trial 2, listed as PA 975 g/ha): 0 | Number of Oryzaphagus oryzae, Repetition A (Oryzaphagus oryzae; [6]): 0 | Number of Oryzaphagus oryzae, Repetition B (Oryzaphagus oryzae; [6]): 0 | Number of Oryzaphagus oryzae, Repetition C (Oryzaphagus oryzae; [6]): 0 | Number of Oryzaphagus oryzae, Repetition D (Oryzaphagus oryzae; [6]): 0 | # Insects, % UNCK (Diabrotica speciosa [1]; Trial 1, potato, 3 DAA): 67.74b % UNCK | # Insects, % UNCK (Diabrotica speciosa [1]; Trial 1, potato, 3 DAA, listed as PA 487.5 g/ha): 48.39ab % UNCK | # Insects, % UNCK (Diabrotica speciosa [1]; Trial 1, potato, 3 DAA, listed as PA 812.5 g/ha): 64.52b % UNCK | # Insects, % UNCK (Diabrotica speciosa [1]; Trial 1, potato, 3 DAA, listed as PA 975 g/ha): 74.19b % UNCK | # Insects, % UNCK (Diabrotica speciosa [1]; Trial 1, potato, 3 DAB): 84.21c % UNCK | # Insects, % UNCK (Diabrotica speciosa [1]; Trial 1, potato, 3 DAB, listed as PA 487.5 g/ha): 34.2b1 % UNCK | # Insects, % UNCK (Diabrotica speciosa [1]; Trial 1, potato, 3 DAB, listed as PA 812.5 g/ha): 86.84c % UNCK | # Insects, % UNCK (Diabrotica speciosa [1]; Trial 1, potato, 3 DAB, listed as PA 975 g/ha): 84.21c % UNCK | # Insects, % UNCK (Diabrotica speciosa [1]; Trial 1, potato, 7 DAA): 55.88abc % UNCK | # Insects, % UNCK (Diabrotica speciosa [1]; Trial 1, potato, 7 DAA, listed as PA 487.5 g/ha): 29.4ab % UNCK | # Insects, % UNCK (Diabrotica speciosa [1]; Trial 1, potato, 7 DAA, listed as PA 812.5 g/ha): 61.76bc % UNCK | # Insects, % UNCK (Diabrotica speciosa [1]; Trial 1, potato, 7 DAA, listed as PA 975 g/ha): 64.71bc % UNCK | # Insects, % UNCK (Diabrotica speciosa [1]; Trial 1, potato, 7 DAB): 81.08b % UNCK | # Insects, % UNCK (Diabrotica speciosa [1]; Trial 1, potato, 7 DAB, listed as PA 487.5 g/ha): 54.05b % UNCK | # Insects, % UNCK (Diabrotica speciosa [1]; Trial 1, potato, 7 DAB, listed as PA 812.5 g/ha): 83.78b % UNCK | # Insects, % UNCK (Diabrotica speciosa [1]; Trial 1, potato, 7 DAB, listed as PA 975 g/ha): 83.78b % UNCK | # Insects, % UNCK (Diabrotica speciosa [1]; Trial 2, potato, 3 DAA): 61.90bc % UNCK | # Insects, % UNCK (Diabrotica speciosa [1]; Trial 2, potato, 3 DAA, listed as PA 487.5 g/ha): 38.10b % UNCK | # Insects, % UNCK (Diabrotica speciosa [1]; Trial 2, potato, 3 DAA, listed as PA 812.5 g/ha): 80.95cd % UNCK | # Insects, % UNCK (Diabrotica speciosa [1]; Trial 2, potato, 3 DAA, listed as PA 975 g/ha): 95.24de % UNCK | # Insects, % UNCK (Diabrotica speciosa [1]; Trial 2, potato, 3 DAB): 25.00ab % UNCK | # Insects, % UNCK (Diabrotica speciosa [1]; Trial 2, potato, 3 DAB, listed as PA 487.5 g/ha): 25.00ab % UNCK | # Insects, % UNCK (Diabrotica speciosa [1]; Trial 2, potato, 3 DAB, listed as PA 812.5 g/ha): 28.57b % UNCK | # Insects, % UNCK (Diabrotica speciosa [1]; Trial 2, potato, 3 DAB, listed as PA 975 g/ha): 53.57c % UNCK | # Insects, % UNCK (Diabrotica speciosa [1]; Trial 2, potato, 7 DAA): 38.10b % UNCK | # Insects, % UNCK (Diabrotica speciosa [1]; Trial 2, potato, 7 DAA, listed as PA 487.5 g/ha): 23.81ab % UNCK | # Insects, % UNCK (Diabrotica speciosa [1]; Trial 2, potato, 7 DAA, listed as PA 812.5 g/ha): 85.71c % UNCK | # Insects, % UNCK (Diabrotica speciosa [1]; Trial 2, potato, 7 DAA, listed as PA 975 g/ha): 100.00d % UNCK | # Insects, % UNCK (Diabrotica speciosa [1]; Trial 2, potato, 7 DAB): 87.50bc % UNCK | # Insects, % UNCK (Diabrotica speciosa [1]; Trial 2, potato, 7 DAB, listed as PA 487.5 g/ha): 70.83b % UNCK | # Insects, % UNCK (Diabrotica speciosa [1]; Trial 2, potato, 7 DAB, listed as PA 812.5 g/ha): 91.67c % UNCK | # Insects, % UNCK (Diabrotica speciosa [1]; Trial 2, potato, 7 DAB, listed as PA 975 g/ha): 100.00c % UNCK | # Insects, % UNCK (Diabrotica speciosa [1]; Trial 2, potato, 10 DAB): 86.96bc % UNCK | # Insects, % UNCK (Diabrotica speciosa [1]; Trial 2, potato, 10 DAB, listed as PA 487.5 g/ha): 68.57b % UNCK | # Insects, % UNCK (Diabrotica speciosa [1]; Trial 2, potato, 10 DAB, listed as PA 812.5 g/ha): 91.30c % UNCK | # Insects, % UNCK (Diabrotica speciosa [1]; Trial 2, potato, 10 DAB, listed as PA 975 g/ha): 100.00c % UNCK | % Damage, % UNCK (Diabrotica speciosa [2]; Trial 1, dry bean): 27.81a % UNCK | % Damage, % UNCK (Diabrotica speciosa [2]; [7]): 82.01b % UNCK | % Damage, % UNCK (Diabrotica speciosa [2]; [8]): 86.96b % UNCK | % Damage, % UNCK (Diabrotica speciosa [2]; [9]): 88.90b % UNCK | Yield (Diabrotica speciosa [2]; Trial 1, dry bean): 2.09b Ton/ha | Yield (Diabrotica speciosa [2]; [7]): 2.28ab Ton/ha | Yield (Diabrotica speciosa [2]; [8]): 2.37ab Ton/ha | Yield (Diabrotica speciosa [2]; [9]): 2.34ab Ton/ha | % Damage, % UNCK (Diabrotica speciosa [2]; Trial 2, dry bean): 39.58b % UNCK | % Damage, % UNCK (Diabrotica speciosa [2]; [10]): 81.64c % UNCK | % Damage, % UNCK (Diabrotica speciosa [2]; [11]): 87.8c % UNCK | % Damage, % UNCK (Diabrotica speciosa [2]; [12]): 88.11c % UNCK | Yield (Diabrotica speciosa [2]; Trial 2, dry bean): 2.11cd Ton/ha | Yield (Diabrotica speciosa [2]; [10]): 2.15cd Ton/ha | Yield (Diabrotica speciosa [2]; [11]): 2.19bc Ton/ha | Yield (Diabrotica speciosa [2]; [12]): 2.29a Ton/ha
